Data: ChEMBL document CHEMBL4350974, “Synthesis and biological evaluation of methylpyrimidine-fused tricyclic diterpene analogs as novel oral anti-late-onset hypogonadism agents” (Eur J Med Chem, 2019)
Activity calls are given as the source filed them. The calls are words filed in the database; no cut-off is given here.

Assays:
Rattus norvegicus [1] = experiment: Anti late-onset hypogonadism activity in cyclophosphamide-induced Sprague-Dawley rat model of partial androgen deficiency assessed as increase in LC3 expression at 50 to 100 mg/kg by immunohistochemical analysis; assay type: functional, organism-based
[2] = Half-life in Sprague-Dawley rat plasma at 50 mg/kg, po up to 12 hrs by LC/MS analysis; assay type: ADME, organism-based
Rattus norvegicus [3] = experiment: Anti late-onset hypogonadism activity in cyclophosphamide-induced Sprague-Dawley rat model of partial androgen deficiency assessed as increase in StAR mRNA level at 50 to 100 mg/kg by RT-PCR analysis; assay type: functional, organism-based
Rattus norvegicus [4] = experiment: Effect on sperm production in cyclophosphamide - induced Sprague-Dawley rat model of partial androgen deficiency assessed as increase in SYCP3 protein expression at 50 to 100 mg/kg by immunohistochemical analysis; assay type: functional, organism-based
Rattus norvegicus [5] = experiment: Anti late-onset hypogonadism activity in cyclophosphamide-induced Sprague-Dawley rat model of partial androgen deficiency assessed as inhibition of Leydig cells apoptosis at 50 to 100 mg/kg, po qd administered for 4 weeks by DAPI staining based TUNEL assay; assay type: functional, organism-based
[6] = Toxicity in cyclophosphamide-induced Sprague-Dawley rat model of partial androgen deficiency assessed as decrease in body weight at 50 to 100 mg/kg, po qd administered for 4 weeks and measured every 3 days; assay type: organism-based; details: in vivo
Rattus norvegicus [7] = species: Rattus norvegicus; experiment: Anti late-onset hypogonadism activity in cyclophosphamide-induced Sprague-Dawley rat model of partial androgen deficiency assessed as prevention of testicular atrophy; assay type: functional, organism-based
Rattus norvegicus [8] = experiment: Anti late-onset hypogonadism activity in cyclophosphamide-induced Sprague-Dawley rat model of partial androgen deficiency assessed as weight of seminal vesicles at 100 mg/kg, po qd administered for 4 weeks (reference value: 1.33 +/- 0.26 g); assay type: functional
Rattus norvegicus [9] = experiment: Anti late-onset hypogonadism activity in cyclophosphamide-induced Sprague-Dawley rat model of partial androgen deficiency assessed as weight of testis at 50 mg/kg, po qd administered for 4 weeks (reference value: 1.47 +/- 0.13 g); assay type: functional
TM3 [10] = experiment: Induction of autophagy in mouse TM3 cells assessed as dephosphorylation of mTOR at 10 to 100 uM by Western blot analysis; assay type: functional, cell-based
TM3 [11] = experiment: Induction of autophagy in mouse TM3 cells assessed as increase in ATG5 protein level at 10 to 100 uM by Western blot analysis; assay type: functional, cell-based
TM3 [12] = experiment: Induction of autophagy in mouse TM3 cells assessed as increase in LC3-II/LC3-I ratio at 10 to 100 uM after 24 hrs by Western blot analysis; assay type: functional, cell-based
[13] = AUC (0 to t) in Sprague-Dawley rat plasma at 50 mg/kg, po up to 12 hrs by LC/MS analysis; assay type: ADME, organism-based; set-up: dose 50 mg/kg, time < 12 hr, route oral
[14] = Cytotoxicity against human NCM460 cells assessed as reduction in cell viability measured after 24 hrs by sulforhodamine B assay; assay type: cell-based
[15] = Cytotoxicity against human HAF cells assessed as reduction in cell viability measured after 24 hrs by sulforhodamine B assay; assay type: cell-based
[16] = Cytotoxicity against human L02 cells assessed as reduction in cell viability measured after 24 hrs by sulforhodamine B assay; assay type: cell-based
[17] = Cytotoxicity against mouse NIH/3T3 cells assessed as reduction in cell viability measured after 24 hrs by sulforhodamine B assay; assay type: cell-based, NIH3T3
TM3 [18] = experiment: Induction of testosterone production in mouse TM3 cells assessed as increase in StAR mRNA expression level after 24 hrs by qRT-PCR analysis; assay type: functional, cell-based
[19] = Toxicity in cyclophosphamide - induced Sprague-Dawley rat model of partial androgen deficiency assessed as effect on heart at 50 to 100 mg/kg by HE staining based histopathological analysis; assay type: organism-based; details: in vivo
[20] = Toxicity in cyclophosphamide - induced Sprague-Dawley rat model of partial androgen deficiency assessed as effect on liver at 50 to 100 mg/kg by HE staining based histopathological analysis; assay type: organism-based; details: in vivo
[21] = Toxicity in cyclophosphamide - induced Sprague-Dawley rat model of partial androgen deficiency assessed as effect on spleen at 50 to 100 mg/kg by HE staining based histopathological analysis; assay type: organism-based; details: in vivo
[22] = Toxicity in cyclophosphamide - induced Sprague-Dawley rat model of partial androgen deficiency assessed as effect on lung at 50 to 100 mg/kg by HE staining based histopathological analysis; assay type: organism-based; details: in vivo
[23] = Toxicity in cyclophosphamide - induced Sprague-Dawley rat model of partial androgen deficiency assessed as sperm viability at 100 mg/kg by semen analysis (reference value: 95.1 +/- 3.2 %); assay type: organism-based; details: in vivo
[24] = Toxicity in cyclophosphamide - induced Sprague-Dawley rat model of partial androgen deficiency assessed as sperm motility at 50 mg/kg by semen analysis (reference value: 88.3 +/- 7.3 %); assay type: organism-based; details: in vivo
[25] = Toxicity in cyclophosphamide - induced Sprague-Dawley rat model of partial androgen deficiency assessed as sperm motility at 100 mg/kg by semen analysis (reference value: 88.3 +/- 7.3 %); assay type: organism-based; details: in vivo
Rattus norvegicus [26] = experiment: Anti late-onset hypogonadism activity in cyclophosphamide-induced Sprague-Dawley rat model of partial androgen deficiency assessed as increase in 3 beta- HSD mRNA level at 100 mg/kg by RT-PCR analysis; assay type: functional, organism-based
Rattus norvegicus [27] = species: Rattus norvegicus; experiment: Anti late-onset hypogonadism activity in cyclophosphamide-induced Sprague-Dawley rat model of partial androgen deficiency assessed as induction of autophagy in Leydig cells immunohistochemical analysis; assay type: functional, organism-based
[28] = Cmax in Sprague-Dawley rat plasma at 50 mg/kg, po up to 12 hrs by LC/MS analysis; assay type: ADME, organism-based; set-up: dose 50 mg/kg, route oral
[29] = Initial plasma concentration in Sprague-Dawley rat plasma at 5 mg/kg, iv by LC/MS analysis; assay type: ADME, organism-based
[30] = AUC (0 to infinity) in Sprague-Dawley rat plasma at 50 mg/kg, po by LC/MS analysis; assay type: ADME, organism-based; set-up: dose 50 mg/kg, route oral, time infinity
[31] = Volume of distribution in Sprague-Dawley rat plasma at 50 mg/kg, po up to 12 hrs by LC/MS analysis; assay type: ADME, organism-based; details: in vivo
[32] = Volume of distribution in Sprague-Dawley rat plasma at 5 mg/kg, iv up to 5 hrs by LC/MS analysis; assay type: ADME, organism-based
[33] = Clearance in Sprague-Dawley rat at 50 mg/kg, po up to 12 hrs by LC/MS analysis; assay type: ADME, organism-based; details: in vivo
[34] = Clearance in Sprague-Dawley rat at 5 mg/kg, iv up to 5 hrs by LC/MS analysis; assay type: ADME, organism-based; details: in vivo
[35] = Mean residence time in Sprague-Dawley rat at 5 mg/kg, iv by LC/MS analysis; assay type: ADME, organism-based; details: in vivo
TM3 [36] = experiment: Induction of testosterone production in mouse TM3 cells assessed as increase in StAR protein expression level after 24 hrs by Western blot analysis; assay type: functional, cell-based
TM3 [37] = experiment: Induction of testosterone production in mouse TM3 cells assessed as increase in 3beta-HSD protein expression level after 24 hrs by Western blot analysis; assay type: functional, cell-based
Rattus norvegicus [38] = experiment: Anti late-onset hypogonadism activity in cyclophosphamide-induced Sprague-Dawley rat model of partial androgen deficiency assessed as increase in serum total testosterone level at 50 to 100 mg/kg, po qd administered for 4 weeks and measured every 2 weeks by ELISA; assay type: functional, organism-based

half-life [2]: 4.44 h
AUC(0-t) at 12 h [13]: 3050 ng·h/mL
Cmax [28]: 239 ng/mL
C0 [29]: 279 ng/mL
AUC(0-inf) [30]: 3140 ng·h/mL
Vd [31]: 106.27 L/kg
Vd [32]: 103 L/kg
CL/F [33]: 270 mL/min/kg
clearance [34]: 155 mL/min/kg
MRT [35]: 9.92 h
Structure (SMILES): CNC(=O)c1cc2c(cc1OC)[C@@]1(C)Cc3cnc(C)nc3C(C)(C)C1CC2 (mixture of isomers)
Activity (Rattus norvegicus [1]): Active
Activity (Rattus norvegicus [3]): Active
Activity (Rattus norvegicus [4]): Active
inhibition (Rattus norvegicus [5]): Active
Activity [6]: Non-Toxic
Activity (Rattus norvegicus [7]): Active
Activity (Rattus norvegicus [8]): 1.68 g
Activity (Rattus norvegicus [9]): 1.54 g
Activity (TM3 [10]): Active
Activity (TM3 [11]): Active
Activity (TM3 [12]): Active
CC50 at 24 h [14]: > 200 µM
CC50 at 24 h [15]: > 200 µM
CC50 at 24 h [16]: > 200 µM
CC50 at 24 h [17]: > 200 µM
Activity (TM3 [18]): Dose-dependent effect
Activity [19]: Non-Toxic
Activity [20]: Non-Toxic
Activity [21]: Non-Toxic
Activity [22]: Non-Toxic
Activity [23]: 98%
Activity [24]: 92.6%
Activity [25]: 94.6%
Activity (Rattus norvegicus [26]): Active
Activity (Rattus norvegicus [27]): Active
Activity (TM3 [36]): Dose-dependent effect
Activity (TM3 [37]): Dose-dependent effect
Activity (Rattus norvegicus [38]): Active
